Source: patent EP2065039A1, “Selective inhibition of Polo-like kinase 1” (Max-Planck-Gesellschaft zur Förderung der Wissenschaften …, priority 2007, dated 2009)
Like-named read-outs stand apart in the source and are kept apart here.

Experiments:
Plk2 PBD = biological target: T1, Plk2 PBD (Homo sapiens, UniProt Q9NYY3); assay: Fluorescence polarization specificity assay, Plk2 PBD; type: binding; conditions: Plk2 PBD 130 nM; incubation with inhibitor 1 hr at 22 °C prior to addition of fluorophore-labeled peptide; read-out: apparent IC50
T1 construct: human Plk2 amino acids 355-685; made in house; host or cells: E. coli Rosetta BL21 DE3
T1 sequence (Q9NYY3 355-685): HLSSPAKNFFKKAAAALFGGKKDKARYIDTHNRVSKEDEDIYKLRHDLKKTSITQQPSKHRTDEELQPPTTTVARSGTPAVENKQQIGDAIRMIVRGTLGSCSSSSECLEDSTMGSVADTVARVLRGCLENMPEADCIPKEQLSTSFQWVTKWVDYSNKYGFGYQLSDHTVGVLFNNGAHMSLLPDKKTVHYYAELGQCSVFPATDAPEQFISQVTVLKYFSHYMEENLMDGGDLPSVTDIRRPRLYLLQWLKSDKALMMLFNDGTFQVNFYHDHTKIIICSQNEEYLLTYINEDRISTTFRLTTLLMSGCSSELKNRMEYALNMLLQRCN
From the text: (§1) DNA sequences coding for human Plk1 amino acids 326-603, human Plk2 amino acids 355-685, and human Plk3 amino acids 335-646 comprising the respective polo-box domains were amplified by PCR from plasmid DNA (Plk1) or placenta cDNA (Plk2, Plk3) and cloned into a modified pET28a (Plk1) or a modified pQE70 vector (Plk2 and Plk3). Similarly, nucleotides coding for the […] (FHA) of the kinase Chk2 (amino acids 1-225) and the WW domain of the proline isomerase Pin1 (amino acids 1-162) were amplified by PCR from HeLa S3 and placenta cDNA, respectively, and cloned into a modified pET28a vector. The design of expression plasmids coding for STAT1, STAT3, STATSb, and Lck has been described before and belongs to the knowledge of a skilled person. […] Wild-type and mutant PBD sequences were cloned into a modified pCS2 mammalian expression vector carrying a myc-tag. […]
(§2) Diverse Chemical libraries consisting of 22461 small molecules were tested in a fluorescence polarization assay which analyzes binding between 5-carboxyfluorescein-GPMQST(P03H2)PLNG-OH (final concentration: 10 nM) and the Plk1 polo-box domain (final concentration: 65 nM). […]

Plk3 PBD = biological target: T2, Plk3 PBD (Homo sapiens, UniProt Q9H4B4); assay: Fluorescence polarization specificity assay, Plk3 PBD; type: binding; conditions: Plk3 PBD 1875 nM; incubation with inhibitor 1 hr at 22 °C prior to addition of fluorophore-labeled peptide; read-out: apparent IC50
T2 construct: human Plk3 amino acids 335-646; made in house; host or cells: E. coli Rosetta BL21 DE3
T2 sequence (Q9H4B4 335-646): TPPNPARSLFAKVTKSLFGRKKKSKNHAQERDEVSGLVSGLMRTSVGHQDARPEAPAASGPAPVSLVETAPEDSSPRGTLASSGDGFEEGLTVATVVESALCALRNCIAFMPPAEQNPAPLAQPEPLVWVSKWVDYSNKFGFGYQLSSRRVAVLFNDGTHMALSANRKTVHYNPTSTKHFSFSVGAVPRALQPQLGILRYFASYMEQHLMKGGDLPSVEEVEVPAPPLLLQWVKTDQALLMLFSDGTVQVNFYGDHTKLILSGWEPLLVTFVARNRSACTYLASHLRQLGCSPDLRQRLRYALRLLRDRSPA
Description: Purified proteins were aliquoted, snap-frozen in liquid nitrogen, and stored at -80°C before use. Binding curve experiments were done for each protein batch before inhibition experiments were started.
The final concentration of buffer components used was: 10 mM Tris, pH 8.0, 50 mM NaCl, 1 mM EDTA, 0.1 % Nonidet P-40, and 10% DMSO. The Plk1 PBD was incubated with compounds for 60 min prior to addition of the fluoropeptide. Screening was performed at room temperature. The following fluorophore-labeled peptides were used for specificity assays: • Plk2: 5-carboxyfluorescein-GPMQTST(PO3H2)PKNG-OH; • Plk3: 5-carboxyfluorescein-GPLATST(PO3H2)PKNG-OH; • Chk2: 5-carboxyfluorescein-GHFDT(PO3H2)YLIRR-OH; • Pin 1: 5-carboxyfluorescein-GWFYS(PO3H2)PRLKK-OH; • STAT1: 5-carboxyfluorescein-GY(PO3H2)DKPHVL-OH; • STAT3: 5-carboxyfluorescein-GY(PO3H2)LPQTV-NH2; • STAT5b: 5-carboxyfluorescein-GY(PO3H2)L VLDKW-OH;Lck:5-carboxyfluorescein-GY(P03H2)EEIP-OH.
Fluorescein-labeled peptides were >95% pure. […] Inhibition curves were fitted using SigmaPlot (SPSS Science Software GmbH).

Chk2 FHA domain = biological target: T3, Chk2 FHA domain (Homo sapiens, UniProt O96017); assay: Fluorescence polarization specificity assay, Chk2 FHA domain; type: binding; conditions: Chk2 240 nM; incubation with inhibitor 1 hr at 22 °C prior to addition of fluorophore-labeled peptide; read-out: apparent IC50
T3 construct: kinase Chk2 (amino acids 1-225); made in house; host or cells: E. coli Rosetta BL21 DE3
T3 sequence (O96017 1-225): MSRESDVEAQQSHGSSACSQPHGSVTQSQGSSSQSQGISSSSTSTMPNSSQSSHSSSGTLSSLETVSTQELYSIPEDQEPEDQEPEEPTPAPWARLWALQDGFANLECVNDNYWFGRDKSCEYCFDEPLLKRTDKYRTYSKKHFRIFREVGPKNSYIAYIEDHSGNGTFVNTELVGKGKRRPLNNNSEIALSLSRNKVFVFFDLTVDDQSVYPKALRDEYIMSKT
From the text: as §1, §2

Pin1 WW domain = biological target: T4, Pin1 WW domain (Homo sapiens, UniProt Q13526); assay: Fluorescence polarization specificity assay, Pin1 WW domain; type: binding; conditions: Pin1 1000 nM; incubation with inhibitor 1 hr at 22 °C prior to addition of fluorophore-labeled peptide; read-out: apparent IC50
T4 construct: proline isomerase Pin1 (amino acids 1-162); made in house; host or cells: E. coli Rosetta BL21 DE3
T4 sequence (Q13526 1-162): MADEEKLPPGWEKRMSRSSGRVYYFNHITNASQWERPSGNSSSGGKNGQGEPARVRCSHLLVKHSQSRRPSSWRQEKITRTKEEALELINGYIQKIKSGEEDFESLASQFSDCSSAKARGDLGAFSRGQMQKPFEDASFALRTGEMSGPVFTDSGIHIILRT
From the text: as §1, §2

STAT1 SH2 domain = STAT1 SH2 domain (Homo sapiens, UniProt P42224); assay: Fluorescence polarization specificity assay, STAT1 SH2 domain; type: binding
Sequence of STAT1 SH2 domain (P42224 132-713): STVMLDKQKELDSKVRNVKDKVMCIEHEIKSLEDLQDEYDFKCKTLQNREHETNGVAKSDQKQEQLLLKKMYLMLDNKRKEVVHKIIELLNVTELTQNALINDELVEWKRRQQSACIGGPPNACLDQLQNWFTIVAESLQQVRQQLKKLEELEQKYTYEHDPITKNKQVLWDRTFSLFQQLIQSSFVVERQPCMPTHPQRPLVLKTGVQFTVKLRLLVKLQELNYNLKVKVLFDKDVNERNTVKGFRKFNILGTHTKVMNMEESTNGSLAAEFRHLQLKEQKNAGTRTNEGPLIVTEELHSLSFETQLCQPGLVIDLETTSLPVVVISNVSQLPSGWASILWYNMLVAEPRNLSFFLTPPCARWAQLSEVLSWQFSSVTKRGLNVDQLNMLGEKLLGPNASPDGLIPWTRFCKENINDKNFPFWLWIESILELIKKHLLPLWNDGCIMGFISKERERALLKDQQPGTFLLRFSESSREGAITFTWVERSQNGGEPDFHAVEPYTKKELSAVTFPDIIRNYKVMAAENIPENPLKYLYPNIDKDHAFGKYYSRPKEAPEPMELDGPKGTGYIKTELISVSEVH
From the text: as §1, §2

STAT3 SH2 domain = biological target: T5, STAT3 SH2 domain (Homo sapiens, UniProt P40763); assay: Fluorescence polarization specificity assay, STAT3 SH2 domain; type: binding; conditions: STAT3 160 nM; incubation with inhibitor 1 hr at 22 °C prior to addition of fluorophore-labeled peptide; read-out: apparent IC50
T5 construct: made in house
T5 sequence (P40763 127-722 limits assumed): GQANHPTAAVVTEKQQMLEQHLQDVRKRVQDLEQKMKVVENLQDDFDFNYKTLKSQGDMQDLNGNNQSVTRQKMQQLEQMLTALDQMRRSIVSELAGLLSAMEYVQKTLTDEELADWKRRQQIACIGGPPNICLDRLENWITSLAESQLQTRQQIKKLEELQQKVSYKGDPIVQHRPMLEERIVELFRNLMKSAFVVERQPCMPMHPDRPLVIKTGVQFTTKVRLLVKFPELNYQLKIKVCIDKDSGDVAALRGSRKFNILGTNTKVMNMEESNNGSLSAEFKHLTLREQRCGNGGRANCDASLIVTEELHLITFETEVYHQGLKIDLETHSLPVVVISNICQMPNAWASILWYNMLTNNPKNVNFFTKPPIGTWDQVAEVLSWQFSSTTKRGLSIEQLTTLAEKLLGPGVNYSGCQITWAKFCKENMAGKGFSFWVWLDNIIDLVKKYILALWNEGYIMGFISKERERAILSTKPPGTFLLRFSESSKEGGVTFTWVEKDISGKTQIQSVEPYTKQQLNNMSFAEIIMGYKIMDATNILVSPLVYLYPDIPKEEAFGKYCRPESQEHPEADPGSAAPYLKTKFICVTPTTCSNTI
From the text: as §1, §2

STAT5 SH2 domain = biological target: T6, STAT5 SH2 domain (Homo sapiens, UniProt P51692); assay: Fluorescence polarization specificity assay, STAT5 SH2 domain; type: binding; conditions: STAT5b 110 nM, incubation with inhibitor 1 hr at 22 °C prior to addition of fluorophore-labeled peptide, read-out: apparent IC50
T6 construct: made in house
T6 sequence (P51692 136-703 limits assumed): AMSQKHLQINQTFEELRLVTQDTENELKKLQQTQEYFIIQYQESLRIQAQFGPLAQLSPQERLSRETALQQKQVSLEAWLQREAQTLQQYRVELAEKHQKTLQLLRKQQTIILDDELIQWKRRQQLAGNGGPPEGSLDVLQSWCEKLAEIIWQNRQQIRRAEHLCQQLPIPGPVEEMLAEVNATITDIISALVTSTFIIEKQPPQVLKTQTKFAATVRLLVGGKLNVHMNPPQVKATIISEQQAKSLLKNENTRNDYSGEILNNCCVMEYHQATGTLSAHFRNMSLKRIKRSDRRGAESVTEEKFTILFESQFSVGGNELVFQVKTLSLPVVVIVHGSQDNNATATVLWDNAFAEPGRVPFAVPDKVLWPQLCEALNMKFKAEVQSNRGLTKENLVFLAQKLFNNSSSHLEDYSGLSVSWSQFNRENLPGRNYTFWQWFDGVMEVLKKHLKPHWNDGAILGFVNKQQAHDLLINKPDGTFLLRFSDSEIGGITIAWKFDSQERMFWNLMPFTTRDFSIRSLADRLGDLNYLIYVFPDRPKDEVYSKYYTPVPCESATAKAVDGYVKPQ
From the text: as §1, §2

Lck SH2 domain = Lck SH2 domain (Homo sapiens, UniProt P06239); assay: Fluorescence polarization specificity assay, Lck SH2 domain; type: binding
Sequence of Lck SH2 domain (P06239 127-224): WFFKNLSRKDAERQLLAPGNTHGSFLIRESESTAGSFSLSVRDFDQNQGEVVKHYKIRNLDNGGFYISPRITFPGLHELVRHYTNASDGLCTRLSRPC
From the text: as §1, §2

HeLa cells = assay: Mitotic arrest / cell cycle analysis in synchronized HeLa cells (Western blot, flow cytometry); type: cell-based; conditions: for mitotic arrest in HeLa cells: HeLa cells synchronized by thymidine block, released into medium containing compound, Figs. 5A-5C
From the text: Figure 1A/B Comparative IC50 inhibition curves with preferred compounds [1] (poloxin) and [14] (thymoquinone, TQ) versus Plk1, Plk2, Plk3, Chk2, Pin1, Stat1, Stat3, Stat5 and Lck. Figure 2 Cellular effects of poloxin and thymoquinone (TQ): Mitotic indices of HeLa cells 14 hrs after release from G1/S block. Figure 3 Distribution of mitotic phases and chromosome congression defects within the metaphase population in the presence of poloxin and thymoquinone (TQ). […]. […] Unsynchronized cells (control), cells synchronized with nocodazol (Noc) or thymidine (Thym), or cells released from thymidine block in the medium containing only DMSO (DMSO) were analyzed for comparison. Figure 5B Analysis of cell cycle distribution by fluorescence-activated flow cytometry. Cells were treated as in 5A. A representative example is shown. Figure 5C Quantification of the cell cycle analysis as shown in 5B (n=3). […]. […] Figure 6B Overexpression of PBD wild-type (wt), but not of the triple mutant PBD FAA, induces mitotic arrest in HeLa cells.
HeLa cells were maintained in Dulbecco's Modified Eagle-Medium (High Glucose) supplemented with 2 mM L-glutamine, 1 mM sodium pyruvate, 10% foetal calf serum, 100 U/mL penicillin, and 100 µg/mL streptomycin (GIBCO and PAA). For the Western blot analysis Fig. 5A, HeLa cells were arrested at the G1/S boundary by thymidine block, and released into thymidine-free medium containing the indicated concentration of compounds at a final DMSO concentration of 0.5%. After 7 hours, medium was replaced with fresh medium which also contained the indicated concentration of compound. […]
For the determination of mitotic indices shown in Fig. 6A, the number of mitotic cells within a population of 200-300 cells was counted. For the determination of the mitotic phase distribution shown in Fig. 6B, populations of approximately 50 mitotic cells were analyzed. […] The DNA content of 30000 cells was determined with a FACScan flow cytometer (BD Biosciences). The data were analyzed with cell cycle analysis Software MODFIT LT 2.0 (Verity Software House). […]

IC50 (STAT1 SH2 domain; STAT1 120 nM, incubation with inhibitor 1 hr at 22 °C prior to addition of fluorophore-labeled peptide, read-out: apparent IC50) [µM] | IC50 (STAT5 SH2 domain; value in mM) [mM] | IC50 (Lck SH2 domain; Lck 40 nM, incubation with inhibitor 1 hr at 22 °C prior to addition of fluorophore-labeled peptide, read-out: apparent IC50) [µM] | Structure (SMILES) | IC50 (Plk2 PBD) [µM] | IC50 (Plk3 PBD) [µM] | IC50 (Chk2 FHA domain) [µM] | IC50 (Pin1 WW domain) [µM] | IC50 (STAT1 SH2 domain) [µM] | IC50 (STAT3 SH2 domain) [µM] | IC50 (STAT5 SH2 domain) [mM] | IC50 (Lck SH2 domain) [µM] | toxic side effects in cell cycle analysis (HeLa cells; 25 µM, HeLa cells, flow cytometry, quantification of cell cycle profile unfeasible (Fig. 5C)) | mitotic arrest in HeLa cells (HeLa cells)
– | – | – | CC1=CC(=O)C(C(C)C)=CC1=O [Thymoquinone, thymoquinone] | 1.9 ± 0.1 | 22.4 ± 0.8 | 3.9 ± 0.6 | 20.4 ± 0.9 | > 5000 | 10.9 ± 0.2 | > 0.24 | > 5000 | toxic side effects | induce mitotic arrest
> 555 | > 1 | > 5000 | CC1=CC(=O)C(C(C)C)=CC1=NOC(=O)c1ccccc1C [Poloxin] | 18.7 ± 1.8 | – | > 330 | > 215 | – | > 285 | – | – | – | induce mitotic arrest
